Data from PubChem BioAssay AID2060493 (Molecular Pharmacology Branch, DTP, NCI, 2025).

System: 616215-338-R-J1-PDC tumor spheroids, viability
Experiment: Anticancer human tumor 616215-338-R-J1-PDC patient-derived colon adenocarcinoma cell line growth inhibition [GQUAD]
Details: spheroids with HUVEC and MSC; for IC50: curve of first compound; for viability, T/C: stronger effect = lower value
Outline: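 Multi-cell-type spheroids of tumor cells with HUVEC and mesenchymal stem cells, treated with drug combinations. Concentrations descend in half-log steps from near clinical Cmax, or from 10 microM where Cmax is unknown; viability read-out.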

[1] = second compound 0.0316 µM, first compound 0.0316 µM
[2] = second compound 0.0316 µM, first compound 0.1 µM
[3] = second compound 0.0316 µM, first compound 0.316 µM
[4] = second compound 0.0316 µM, first compound 1 µM
[5] = second compound 0.0316 µM, first compound 3.16 µM
[6] = second compound 0.0316 µM, first compound 10 µM
[7] = second compound 0.1 µM, first compound 0.0316 µM
[8] = second compound 0.1 µM, first compound 0.1 µM
[9] = second compound 0.1 µM, first compound 0.316 µM
[10] = second compound 0.1 µM, first compound 1 µM
[11] = second compound 0.1 µM, first compound 3.16 µM
[12] = second compound 0.1 µM, first compound 10 µM
[13] = second compound 0.316 µM, first compound 0.0316 µM
[14] = second compound 0.316 µM, first compound 0.1 µM
[15] = second compound 0.316 µM, first compound 0.316 µM
[16] = second compound 0.316 µM, first compound 1 µM
[17] = second compound 0.316 µM, first compound 3.16 µM
[18] = second compound 0.316 µM, first compound 10 µM
[19] = second compound 1 µM, first compound 0.0316 µM
[20] = second compound 1 µM, first compound 0.1 µM
[21] = second compound 1 µM, first compound 0.316 µM
[22] = second compound 1 µM, first compound 1 µM
[23] = second compound 1 µM, first compound 3.16 µM
[24] = second compound 1 µM, first compound 10 µM
[25] = second compound 3.16 µM, first compound 0.0316 µM
[26] = second compound 3.16 µM, first compound 0.1 µM
[27] = second compound 3.16 µM, first compound 0.316 µM
[28] = second compound 3.16 µM, first compound 1 µM
[29] = second compound 3.16 µM, first compound 3.16 µM
[30] = second compound 3.16 µM, first compound 10 µM
[31] = second compound 10 µM, first compound 0.0316 µM
[32] = second compound 10 µM, first compound 0.1 µM
[33] = second compound 10 µM, first compound 0.316 µM
[34] = second compound 10 µM, first compound 1 µM
[35] = second compound 10 µM, first compound 3.16 µM
[36] = second compound 10 µM, first compound 10 µM
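Note: spheroids exposed to agents for 7 days before readout.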
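Throughout, for viability, T/C: percent viability relative to DMSO vehicle control wells taken as 100%.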

`COc1cc(C2c3cc4c(cc3C(OC3OC5COC(C)OC5C(O)C3O)C3COC(=O)C23)OCO4)cc(OC)c1O` (stereo not drawn) + Cc1[nH]c2ccc(F)cc2c1-c1nc2c3cccnc3c3ncccc3c2[nH]1 gave an IC50 (second compound 0.0316 µM) of 669 nM, an IC50 (second compound 0.1 µM) of 1050 nM and an IC50 (second compound 0.316 µM) of 889 nM. For the same compound, the IC50 (second compound 1 µM) was 584 nM, the IC50 (second compound 3.16 µM) was 541 nM and the IC50 (second compound 10 µM) was 720 nM. The viability, T/C [1] was 113%, the viability, T/C [2] was 97.5% and the viability, T/C [3] was 64.9%. The viability, T/C [4] was 41.6%, the viability, T/C [5] was 32.4% and the viability, T/C [6] was 25.4%. It also gave a viability, T/C [7] of 105%, a viability, T/C [8] of 101% and a viability, T/C [9] of 67.1%. For the same compound, the viability, T/C [10] was 54.4%, the viability, T/C [11] was 36.2% and the viability, T/C [12] was 28.4%. For the same compound, the viability, T/C [13] was 84.6%, the viability, T/C [14] was 104% and the viability, T/C [15] was 75.7%. It also gave a viability, T/C [16] of 47%, a viability, T/C [17] of 31.9% and a viability, T/C [18] of 22.5%. The viability, T/C [19] was 95.9%, the viability, T/C [20] was 97.9% and the viability, T/C [21] was 65.5%. The viability, T/C [22] was 37.5%, the viability, T/C [23] was 41.9% and the viability, T/C [24] was 25.4%. It also gave a viability, T/C [25] of 86.2%, a viability, T/C [26] of 96.2% and a viability, T/C [27] of 63.2%. For the same compound, the viability, T/C [28] was 36.5%, the viability, T/C [29] was 40.4% and the viability, T/C [30] was 27.7%. For the same compound, the viability, T/C [31] was 93.8%, the viability, T/C [32] was 87.3% and the viability, T/C [33] was 67.9%. It also gave a viability, T/C [34] of 40.8%, a viability, T/C [35] of 34.3% and a viability, T/C [36] of 23%.

For `COc1cccc2c1C(=O)c1c(O)c3c(c(O)c1C2=O)CC(O)(C(=O)CO)CC3OC1CC(N)C(O)C(C)O1` (stereo not drawn) + Cc1[nH]c2ccc(F)cc2c1-c1nc2c3cccnc3c3ncccc3c2[nH]1, the IC50 (second compound 0.0316 µM) was 771 nM, the IC50 (second compound 0.1 µM) was 504 nM and the IC50 (second compound 0.316 µM) was 554 nM. The IC50 (second compound 1 µM) was 937 nM, the IC50 (second compound 3.16 µM) was 506 nM and the IC50 (second compound 10 µM) was 623 nM. It also gave a viability, T/C [1] of 108%, a viability, T/C [2] of 88.2% and a viability, T/C [3] of 58.6%. It also gave a viability, T/C [4] of 39.3%, a viability, T/C [5] of 38.8% and a viability, T/C [6] of 2.47%. The viability, T/C [7] was 96.8%, the viability, T/C [8] was 92.8% and the viability, T/C [9] was 46.3%. For the same compound, the viability, T/C [10] was 41.5%, the viability, T/C [11] was 21.6% and the viability, T/C [12] was 4%. It also gave a viability, T/C [13] of 105%, a viability, T/C [14] of 75.5% and a viability, T/C [15] of 53.7%. The viability, T/C [16] was 49%, the viability, T/C [17] was 18.7% and the viability, T/C [18] was 2.01%. It also gave a viability, T/C [19] of 91.7%, a viability, T/C [20] of 91.2% and a viability, T/C [21] of 71.6%. The viability, T/C [22] was 44.5%, the viability, T/C [23] was 27.6% and the viability, T/C [24] was 2.3%. It also gave a viability, T/C [25] of 89.2%, a viability, T/C [26] of 84.6% and a viability, T/C [27] of 50%. It also gave a viability, T/C [28] of 39%, a viability, T/C [29] of 23.4% and a viability, T/C [30] of 1.17%. It also gave a viability, T/C [31] of 103%, a viability, T/C [32] of 76.2% and a viability, T/C [33] of 55.6%. The viability, T/C [34] was 54.8%, the viability, T/C [35] was 20.1% and the viability, T/C [36] was 1.64%.

With `Nc1ccn(C2OC(CO)C(O)C2(F)F)c(=O)n1` (stereo not drawn) + Cc1[nH]c2ccc(F)cc2c1-c1nc2c3cccnc3c3ncccc3c2[nH]1 the IC50 (second compound 0.0316 µM) was < 31.6 nM, the IC50 (second compound 0.1 µM) was 33.6 nM and the IC50 (second compound 0.316 µM) was < 31.6 nM. The IC50 (second compound 1 µM) was < 31.6 nM, the IC50 (second compound 3.16 µM) was < 31.6 nM and the IC50 (second compound 10 µM) was < 31.6 nM. It also gave a viability, T/C [1] of 39%, a viability, T/C [2] of 26.1% and a viability, T/C [3] of 19.7%. For the same compound, the viability, T/C [4] was 13.7%, the viability, T/C [5] was 14% and the viability, T/C [6] was 16.1%. For the same compound, the viability, T/C [7] was 51.6%, the viability, T/C [8] was 20.2% and the viability, T/C [9] was 13.4%. For the same compound, the viability, T/C [10] was 12.9%, the viability, T/C [11] was 16.2% and the viability, T/C [12] was 17.1%. It also gave a viability, T/C [13] of 43.9%, a viability, T/C [14] of 23.8% and a viability, T/C [15] of 14.6%. The viability, T/C [16] was 13.9%, the viability, T/C [17] was 16% and the viability, T/C [18] was 13.6%. For the same compound, the viability, T/C [19] was 39.2%, the viability, T/C [20] was 31.1% and the viability, T/C [21] was 14.8%. The viability, T/C [22] was 11.8%, the viability, T/C [23] was 13.4% and the viability, T/C [24] was 13.8%. For the same compound, the viability, T/C [25] was 29.9%, the viability, T/C [26] was 22% and the viability, T/C [27] was 18.2%. It also gave a viability, T/C [28] of 13.8%, a viability, T/C [29] of 11% and a viability, T/C [30] of 14.6%. For the same compound, the viability, T/C [31] was 38.7%, the viability, T/C [32] was 17.2% and the viability, T/C [33] was 12.4%. The viability, T/C [34] was 14%, the viability, T/C [35] was 13.8% and the viability, T/C [36] was 13.8%.

For `O=c1[nH]cc(F)c(=O)[nH]1` + Cc1[nH]c2ccc(F)cc2c1-c1nc2c3cccnc3c3ncccc3c2[nH]1, the IC50 (second compound 0.0316 µM) was 685 nM, the IC50 (second compound 0.1 µM) was 380 nM and the IC50 (second compound 0.316 µM) was 592 nM. For the same compound, the IC50 (second compound 1 µM) was 729 nM, the IC50 (second compound 3.16 µM) was 342 nM and the IC50 (second compound 10 µM) was 289 nM. It also gave a viability, T/C [1] of 97.7%, a viability, T/C [2] of 96.9% and a viability, T/C [3] of 64.3%. The viability, T/C [4] was 43%, the viability, T/C [5] was 48.1% and the viability, T/C [6] was 37%. The viability, T/C [7] was 102%, the viability, T/C [8] was 94.4% and the viability, T/C [9] was 51.8%. For the same compound, the viability, T/C [10] was 41.3%, the viability, T/C [11] was 36.3% and the viability, T/C [12] was 35.1%. It also gave a viability, T/C [13] of 99.6%, a viability, T/C [14] of 92.6% and a viability, T/C [15] of 57.1%. The viability, T/C [16] was 47%, the viability, T/C [17] was 37% and the viability, T/C [18] was 34.2%. For the same compound, the viability, T/C [19] was 96%, the viability, T/C [20] was 94.8% and the viability, T/C [21] was 65.1%. The viability, T/C [22] was 46.1%, the viability, T/C [23] was 39.2% and the viability, T/C [24] was 43.6%. The viability, T/C [25] was 98.3%, the viability, T/C [26] was 82.9% and the viability, T/C [27] was 51.5%. For the same compound, the viability, T/C [28] was 37.6%, the viability, T/C [29] was 38.8% and the viability, T/C [30] was 42.7%. For the same compound, the viability, T/C [31] was 102%, the viability, T/C [32] was 83.8% and the viability, T/C [33] was 46.7%. For the same compound, the viability, T/C [34] was 38.9%, the viability, T/C [35] was 34.3% and the viability, T/C [36] was 36.2%.
